Data on six compounds can be found in patent US4614807A, “6,7-dihalomelatonins” (Eli Lilly and Company, priority 1984, dated 1986).

Assay [1] concerns ovulation. Briefly: inhibition of ovulation, test compound given orally on the day of proestrus; absence of ova in oviduct. Format: in vivo. The conditions noted are these: oral, rat. How it is done: The compounds of the invention are ovulation inhibitors, with a longer duration of action than the monochloromelatonins. The degree of ovulation inhibitory activity was determined according to the following protocol.
Adult female rats with regular estrus cycles of four days each are employed. The estrus cycle consists of 2 days of diestrus followed by a day of proestrus and then a day of estrus. […] On the afternoon of proestrus, luteinizing hormone (LH) is released into the blood by the pituitary gland. The LH travels to the ovary where it induces ovulation, resulting in the presence of eggs in the oviduct on the day of estrus.
The test compound is administered orally at predetermined times on the day of proestrus. The rat is sacrificed on the following day (estrus). The oviduct is removed and examined microscopically for the presence of ova.
In the Table, column 1 gives the name of the compound, column 2 the time of administration and column 3 the percent inhibition of ovulation.

Assay [2] concerns ovulation. Particulars: in vivo; cited from earlier work.
Assay [3] has as its system estrous phase of the estrous cycle and ovulation. The conditions noted are these: rats; cited from earlier work.
Assay [4] shares this test system. Particulars: mice; cited from earlier work.
[5] abbreviates: time of administration 10:00 a.m.

SMILES strings stand for the structures. Where two headings read alike, the source gives them in different places.

In the case of `COc1cc2c(CCNC(C)=O)c[nH]c2cc1Cl` [6-chloromelatonin], the “Percent Inhibition of ovulation” value in assay [1] (setting [5]) worked out at 0%. For the same compound, the ovulation blocking activity entry in assay [2] is “increased ovulation blocking activity”.
As for `COc1cc2c(CCNC(C)=O)c(C)[nH]c2c(Cl)c1Cl` [2-methyl-6,7-dichloromelatonin], in assay [1] (time of administration 8:00 a.m.), the “Percent Inhibition of ovulation” value came out at 100%.
For `COc1cc2c(CC(C)NC(C)=O)c[nH]c2cc1Cl` (stereo not drawn) [α-methyl-6-chloromelatonin], the “effect of α-methyl substitution on ovulation-blocking activity” value in assay [2] is listed as “no significant effect”.
As for `COc1ccc2[nH]cc(CCNC(C)=O)c2c1` [melatonin, N-[2-(5-methoxy-3-indolyl)ethyl]acetamide], in assay [3], the “inhibition of estrous phase of the estrous cycle” value is given as “inhibited” and the inhibition of ovulation entry is given as “inhibited”. Besides, in assay [4], the “inhibition of estrous phase of the estrous cycle” value is “inhibited” and the inhibition of ovulation result is “inhibited”.
Take `COc1cc2c(CCNC(C)=O)c[nH]c2cc1F` [6-fluoromelatonin]: the ovulation blocking activity result in assay [2] is recorded as “increased ovulation blocking activity”.
`COc1cc2c(CCNC(C)=O)c[nH]c2c(Cl)c1Cl` [6,7-dichloromelatonin, N-acetyl-5-methoxy-6,7-dichlorotryptamine]: in assay [1] (setting [5]), the “Percent Inhibition of ovulation” value is 100%.
